Results on 16 compounds are retold here after paper PMC2766550 (Peptides, 2009).

Square brackets hold non-standard residues; d marks the D form. Ends that are not written are not given here. Peptide text beside a SMILES is read from it. * marks the point of attachment. dPhe(F5) = N[C@H](Cc1c(F)c(F)c(F)c(F)c1F)C(=O)O; pGlu = O=C1CC[C@@H](C(=O)O)N1; Nle = CCCC[C@H](N)C(=O)O; βAla = NCCC(=O)O; NHPr = CCCN* Bounds are passed on as bounds.

One test has as its target T1, hBRS-3 receptor (Homo sapiens, UniProt P32247).
T1 sequence (P32247 1-399): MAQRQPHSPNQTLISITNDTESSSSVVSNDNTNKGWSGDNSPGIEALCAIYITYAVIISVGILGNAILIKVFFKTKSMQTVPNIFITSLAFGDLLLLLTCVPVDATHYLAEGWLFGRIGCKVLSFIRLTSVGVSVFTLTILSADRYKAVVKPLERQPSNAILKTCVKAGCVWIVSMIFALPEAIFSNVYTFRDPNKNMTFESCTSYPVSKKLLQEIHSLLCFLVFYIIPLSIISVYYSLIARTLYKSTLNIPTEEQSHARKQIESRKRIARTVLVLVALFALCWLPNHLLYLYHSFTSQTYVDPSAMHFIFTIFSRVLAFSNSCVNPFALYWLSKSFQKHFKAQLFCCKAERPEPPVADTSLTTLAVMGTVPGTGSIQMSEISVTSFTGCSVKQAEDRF
Kind of test: Whole cell radioligand binding, hBRS-3 transfected Balb 3T3 cells.

Test [1] has as its target T2, hNMB-receptor (Homo sapiens, UniProt P28336). Kind of test: Whole cell radioligand binding, hNMB-receptor transfected Balb 3T3 cells. Conditions: IC50 hNMB-R Balb-3T3, hNMB-receptor transfected Balb 3T3 cells; 125I-[D-Tyr0]NMB, 1 h, 22°C; mean ± S.E.
For test [2], the target named is T2, hNMB-receptor. Kind of test: Whole cell radioligand binding, hNMB-receptor transfected NCI-H1299 cells.
The target in test [3] is T3, hGRP-receptor (Homo sapiens, UniProt P30550). Description: Whole cell radioligand binding, HuTu-80 cells.
Test [4] addresses T2, hNMB-receptor. Kind of test: cell-based. The settings on record: for [3H]IP NCI-H1299 (hNMB-R) EC50: stimulation of [3H]IP generation.
Test [5] deals with T3, hGRP-receptor. Description: [3H]inositol phosphate generation, hGRP-receptor transfected Balb 3T3 cells. It is filed as cell-based.
The target of test [6] is T3, hGRP-receptor. Kind of test: [3H]inositol phosphate generation, HuTu-80 cells. It is filed as cell-based.

T2 sequence (P28336 whole entry): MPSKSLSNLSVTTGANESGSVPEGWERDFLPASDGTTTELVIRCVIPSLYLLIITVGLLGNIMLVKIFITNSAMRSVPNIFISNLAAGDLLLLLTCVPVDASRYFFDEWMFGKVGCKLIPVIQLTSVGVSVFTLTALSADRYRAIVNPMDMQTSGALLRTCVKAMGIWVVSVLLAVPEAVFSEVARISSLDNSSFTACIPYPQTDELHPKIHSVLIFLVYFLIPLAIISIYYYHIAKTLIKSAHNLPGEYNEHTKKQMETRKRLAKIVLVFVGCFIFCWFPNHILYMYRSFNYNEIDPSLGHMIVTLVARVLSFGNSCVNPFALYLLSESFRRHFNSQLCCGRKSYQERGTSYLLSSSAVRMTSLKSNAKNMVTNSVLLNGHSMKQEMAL
T3 sequence (P30550 whole entry): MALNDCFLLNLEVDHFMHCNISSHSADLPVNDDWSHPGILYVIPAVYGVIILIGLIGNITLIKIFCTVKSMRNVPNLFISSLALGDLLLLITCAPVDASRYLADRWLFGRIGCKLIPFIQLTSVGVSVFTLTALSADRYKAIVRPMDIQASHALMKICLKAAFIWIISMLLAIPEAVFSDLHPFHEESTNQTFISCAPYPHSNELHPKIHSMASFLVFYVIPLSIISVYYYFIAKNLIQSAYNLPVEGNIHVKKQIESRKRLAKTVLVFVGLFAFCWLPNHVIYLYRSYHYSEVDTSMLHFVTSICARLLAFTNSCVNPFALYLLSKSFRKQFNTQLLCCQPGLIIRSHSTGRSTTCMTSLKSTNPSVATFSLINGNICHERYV

For `CSCC[C@H](NC(=O)[C@H](CC(C)C)NC(=O)[C@H](Cc1c[nH]cn1)NC(=O)CNC(=O)[C@@H](NC(=O)[C@H](C)NC(=O)[C@H](Cc1c[nH]c2ccccc12)NC(=O)[C@H](Cc1c[nH]cn1)NC(=O)[C@H](CC(N)=O)NC(=O)CNC(=O)[C@H](CCCNC(=N)N)NC(=O)[C@@H]1CCCN1C(=O)[C@H](Cc1ccc(O)cc1)NC(=O)[C@H](CCSC)NC(=O)[C@H](CCCCN)NC(=O)[C@@H](NC(=O)[C@H](CC(C)C)NC(=O)[C@@H](NC(=O)[C@@H](NC(=O)CNC(=O)CNC(=O)CNC(=O)[C@H](C)NC(=O)[C@@H]1CCCN1C(=O)[C@H](CC(C)C)NC(=O)[C@@H]1CCCN1C(=O)[C@@H](N)C(C)C)[C@@H](C)O)C(C)C)[C@@H](C)O)C(C)C)C(N)=O` [GRP, gastrin-releasing peptide, reference compound], the “fold lower affinity for hBRS3 than for the ligand's own receptor” value at hBRS-3 receptor is listed as > 10,000 fold.
On to `CC(C)C[C@H](NC(=O)[C@H](CC(C)C)NC(=O)[C@@H](Cc1ccccc1)NC(=O)CNC(=O)[C@@H](NC(=O)[C@H](C)NC(=O)[C@H](Cc1c[nH]c2ccccc12)NC(=O)[C@H](CCC(N)=O)NC(=O)[C@H](CC(N)=O)NC(=O)CNC(=O)[C@H](CC(C)C)NC(=O)[C@H](CCCNC(=N)N)NC(=O)[C@H](CCC(N)=O)NC(=O)[C@@H]1CCC(=O)N1)C(C)C)C(N)=O` [Peptide 1, [D-Phe^12, Leu^14]Bn] ([pGlu]QRLGNQWAVG[dF]LL-NH2), for which the IC50 on hNMB-receptor [1] and on hBRS-3 receptor was above 10 µM throughout.
On to `CSCC[C@H](NC(=O)[C@H](CC(C)C)NC(=O)[C@@H](Cc1ccccc1)NC(=O)CNC(=O)[C@@H](NC(=O)[C@H](C)NC(=O)[C@H](Cc1c[nH]c2ccccc12)NC(=O)[C@H](CCC(N)=O)NC(=O)[C@H](CC(N)=O)NC(=O)CNC(=O)[C@H](Cc1ccc(O)cc1)NC(=O)[C@H](CCCNC(=N)N)NC(=O)[C@H](CCC(N)=O)NC(=O)[C@@H]1CCC(=O)N1)C(C)C)C(N)=O` [Peptide 2, [Tyr^4, D-Phe^12]Bn], for which the IC50 (usually the concentration needed to halve the response being measured) at hNMB-receptor [2] was 1.86 ± 0.06 µM; on hGRP-receptor [3] it was 0.912 ± 0.076 µM; at hNMB-receptor [1] it was 3.09 ± 0.32 µM; on hBRS-3 receptor it was above 10 µM; on hGRP-receptor [5] it was above 10 µM; against hGRP-receptor [6] it was 8.13 ± 0.226 µM. Moreover, on hNMB-receptor [4], the response was half-maximal at 0.103 ± 0.005 µM (EC50).
On to `CC(C)C[C@H](NC(=O)[C@H](CC(C)C)NC(=O)[C@@H](Cc1c[nH]c2ccccc12)NC(=O)[C@H](Cc1ccccc1)NC(=O)[C@@H](Cc1c[nH]c2ccccc12)NC(=O)[C@H](CCC(N)=O)NC(=O)[C@H](CCC(N)=O)NC(=O)[C@@H]1CCCN1C(=O)[C@H](CCCCN)NC(=O)[C@@H]1CCCN1C(=O)[C@H](N)CCCN=C(N)N)C(N)=O` [Peptide 3, [D-Arg^1, D-Trp^7,9, Leu^11]SP] (H-[dR]PKPQQ[dW]F[dW]LL-NH2), for which the IC50 on hNMB-receptor [2] was 1.59 ± 0.03 µM; on hGRP-receptor [3] it was 1.78 ± 0.05 µM; at hNMB-receptor [4], 2.34 ± 0.08 µM; at hNMB-receptor [1] it was 4.48 ± 0.86 µM; at hBRS-3 receptor, above 10 µM; against hGRP-receptor [5] it was 1.58 ± 0.081 µM. Also, the IC50 on hGRP-receptor [6] worked out at 8.31 ± 0.154 µM.
As to `CC(C)C[C@H](NC(=O)[C@H](CC(C)C)NC(=O)[C@@H](Cc1c[nH]c2ccccc12)NC(=O)[C@H](Cc1ccccc1)NC(=O)[C@@H](Cc1c[nH]c2ccccc12)NC(=O)[C@H](CCC(N)=O)NC(=O)[C@H](CCC(N)=O)NC(=O)[C@@H]1CCCN1C(=O)[C@H](CCCCN)NC(=O)[C@@H]1CCCN1C(=O)[C@H](N)CCCNC(=N)N)C(N)=O` [Peptide 3, [D-Arg^1, D-Trp^7,9, Leu^11]SP] (H-[dR]PKPQQ[dW]F[dW]LL-NH2), the “[3H]IP NCI-H1299 (hNMB-R) EC50” value on hNMB-receptor [4] is on record as “No act”.
Turning to `CSCC[C@H](NC(=O)[C@@H](Cc1c[nH]c2ccccc12)NC(=O)[C@@H](Cc1c[nH]c2ccccc12)NC(=O)[C@H](Cc1ccccc1)NC(=O)[C@@H](Cc1c[nH]c2ccccc12)NC(=O)[C@H](CCC(N)=O)NC(=O)[C@H](CCC(N)=O)NC(=O)[C@H]1CCCN1)C(N)=O` [Peptide 4, [D-Pro^4, D-Trp^7,9,10]SP-(4-11)] (H-[dP]QQ[dW]F[dW][dW]M-NH2), the IC50 at hNMB-receptor [2] is above 10 µM; on hGRP-receptor [3] it was above 10 µM; on hNMB-receptor [4], 7.08 ± 0.344 µM; at hNMB-receptor [1], above 10 µM; at hBRS-3 receptor, 2.3 ± 0.4 µM; against hGRP-receptor [5] it was above 3 µM. The IC50 against hGRP-receptor [6] is above 3 µM. In addition, the “[3H]IP NCI-H1299 (hNMB-R) EC50” value on hNMB-receptor [4] is listed as “No act”.
For the compound `CC(C)C[C@H](NC(=O)[C@H](Cc1cnc[nH]1)NC(=O)CNC(=O)[C@@H](NC(=O)[C@H](C)NC(=O)[C@H](Cc1c[nH]c2ccccc12)NC(=O)[C@H](CCC(N)=O)NC(=O)[C@H](N)Cc1ccccc1)C(C)C)C(N)=O` [Peptide 8, [D-Phe^6]Bn(6-13)NH2], the IC50 at hNMB-receptor [2] was above 10 µM; at hGRP-receptor [3], 0.00493 ± 0.00039 µM; on hNMB-receptor [4], above 10 µM; at hNMB-receptor [1] it was above 10 µM; on hBRS-3 receptor, above 10 µM; at hGRP-receptor [5] it was 0.416 ± 0.008 µM. This compound also returned an IC50 on hGRP-receptor [6] of 0.398 ± 0.011 µM.
In the case of `CCNC(=O)[C@H](CC(C)C)NC(=O)[C@H](Cc1c[nH]cn1)NC(=O)CNC(=O)[C@@H](NC(=O)[C@H](C)NC(=O)[C@H](Cc1c[nH]c2ccccc12)NC(=O)[C@H](CCC(N)=O)NC(=O)[C@H](N)Cc1ccccc1)C(C)C` [Peptide 10, [D-Phe^6]Bn(6-13)Ethylamide], the IC50 on hNMB-receptor [2] was above 10 µM; at hGRP-receptor [3], 0.00222 ± 0.00013 µM; on hNMB-receptor [1], above 10 µM; at hBRS-3 receptor, above 10 µM; at hGRP-receptor [5], 0.0525 ± 0.0043 µM; on hGRP-receptor [6], 0.0436 ± 0.0036 µM.
For `CCCNC(=O)[C@H](CC(C)C)NC(=O)[C@H](Cc1c[nH]cn1)NC(=O)CNC(=O)[C@@H](NC(=O)[C@H](C)NC(=O)[C@H](Cc1c[nH]c2ccccc12)NC(=O)[C@H](CCC(N)=O)NC(=O)[C@H](N)Cc1ccc(O)cc1)C(C)C` [Peptide 12, [D-Tyr^6]Bn-(6-13)Propylamide (PA)], the IC50 on hNMB-receptor [2] is above 10 µM; at hGRP-receptor [3] it was 0.00141 ± 6e-05 µM; on hNMB-receptor [1], above 10 µM; at hBRS-3 receptor, 1.9 ± 0.3 µM; at hGRP-receptor [5] it was 0.275 ± 0.013 µM; against hGRP-receptor [6], 0.0407 ± 0.0014 µM.
For the compound `CCCNC(=O)[C@H](Cc1ccccc1)NC(=O)[C@H](Cc1c[nH]cn1)NC(=O)CNC(=O)[C@@H](NC(=O)[C@H](C)NC(=O)[C@H](Cc1c[nH]c2ccccc12)NC(=O)[C@H](CCC(N)=O)NC(=O)[C@H](N)Cc1ccccc1)[C@@H](C)O` [Peptide 13, [D-Phe^6,Thr^10, Phe^13]Bn(6-13)PA] (H-[dF]QWATGHF-NHPr), the values for the IC50 on hNMB-receptor [1] and on hBRS-3 receptor were 1.32 ± 0.03 µM and above 10 µM, respectively.
As for `CCCCNC(=O)[C@H](CC(C)C)NC(=O)[C@H](Cc1c[nH]cn1)NC(=O)CNC(=O)[C@@H](NC(=O)[C@H](C)NC(=O)[C@H](Cc1c[nH]c2ccccc12)NC(=O)[C@H](CCC(N)=O)NC(=O)[C@H](N)Cc1ccccc1)C(C)C` [Peptide 14, [D-Phe^6]Bn(6-13)Butylamide (BA)], the IC50 on hNMB-receptor [2] amounted to 1.78 ± 0.03 µM; at hGRP-receptor [3], 0.00102 ± 9e-05 µM; on hNMB-receptor [1], 3.11 ± 0.16 µM; at hBRS-3 receptor, 0.692 ± 0.027 µM; on hGRP-receptor [5] it was 0.0213 ± 0.0016 µM; at hGRP-receptor [6], 0.0155 ± 0.002 µM.
`CCCCCCNC(=O)[C@H](CC(C)C)NC(=O)[C@H](Cc1cnc[nH]1)NC(=O)CNC(=O)[C@@H](NC(=O)[C@H](C)NC(=O)[C@H](Cc1c[nH]c2ccccc12)NC(=O)[C@H](CCC(N)=O)NC(=O)[C@H](N)Cc1ccccc1)C(C)C` [Peptide 15, [D-Phe^6]Bn-(6-13)Hexylamide]: the IC50 is above 10 µM on hNMB-receptor [2]; 0.00219 ± 4e-05 µM at hGRP-receptor [3]; 8.14 ± 0.4 µM at hNMB-receptor [1]; 3.25 ± 0.06 µM at hBRS-3 receptor; 0.38 ± 0.031 µM against hGRP-receptor [5]; 0.204 ± 0.014 µM against hGRP-receptor [6].
As for `CCCCCCCNC(=O)[C@H](CC(C)C)NC(=O)[C@H](Cc1c[nH]cn1)NC(=O)CNC(=O)[C@@H](NC(=O)[C@H](C)NC(=O)[C@H](Cc1c[nH]c2ccccc12)NC(=O)[C@H](CCC(N)=O)NC(=O)[C@H](N)Cc1ccccc1)C(C)C` [Peptide 16, [D-Phe^6]Bn(6-13)Heptylamide], the IC50 was 6.1 ± 0.63 µM at hNMB-receptor [1] and above 10 µM on hBRS-3 receptor.
In the same order, the values of `COC(=O)[C@H]1CCCN1C(=O)[C@H](Cc1c[nH]cn1)NC(=O)[C@@H](C)NC(=O)[C@@H](NC(=O)[C@H](C)NC(=O)[C@H](Cc1c[nH]c2ccccc12)NC(=O)[C@H](Cc1c[nH]cn1)NC(=O)[C@H](N)Cc1c(F)c(F)c(F)c(F)c1F)C(C)C` [Peptide 19, [D-F-5-Phe^6, His^7, D-Ala^11, D-Pro^13]Bn(6-13)ME] (H-[dPhe(F5)]HWAV[dA]H[dP]-OMe) are above 10 µM and above 10 µM.
In the same order, the values of `CCCC[C@H](NC(=O)[C@H](Cc1ccccc1)NC(=O)[C@H](Cc1cnc[nH]1)NC(=O)CCNC(=O)[C@@H](NC(=O)[C@H](C)NC(=O)[C@H](Cc1c[nH]c2ccccc12)NC(=O)[C@H](CCC(N)=O)NC(=O)[C@H](N)Cc1ccc(O)cc1)C(C)C)C(N)=O` [Peptide 35, [D-Tyr^6, β-Ala^11,Phe^13, Nle^14]Bn-(6-14), reference compound] (H-[dY]QWAV[βAla]HF[Nle]-NH2) are 0.00031 ± 1e-05 µM and 0.00055 ± 3e-05 µM.
In the same order, the values of NQWAVGHL-NH2 [Peptide 9, Bn(6-13)NH2] are above 10 µM and above 10 µM.
